# The METLIN SMRT retention time set (Domingo-Almenara et al. 2019)
# Assay: gradient 5% acetonitrile 3 min, to 50% in 2 min, to 85% in 15 min, held 3 min, 100 µL/min
# Conditions: column: Zorbax Extend-C18 2.1 x 50 mm; eluents: water / acetonitrile, 0.1% formic acid
# Method in brief: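 Standards, all pure, were combined into mixtures of ~100 molecules and run at 100 μL/min on a Zorbax Extend-C18 column (2.1 × 50 mm, 1.8 μm) with water and acetonitrile, each containing 0.1% formic acid. A coupled quadrupole time-of-flight mass spectrometer operated in positive and negative ionization mode. Retention time values come from computationally picked adduct peaks, each inspected manually.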
row,Compound,RP-LC retention time [s]
1,O=C(Nc1ccc(F)c(F)c1)C1CCc2nc(N3CCOCC3)ncc2C1 (stereo unspecified),742
2,COc1ccc(/C=C2\COc3ccc(C)cc3C2=O)cc1O,1050
3,CC(C)Cn1c(CCNC(=O)c2cccc(F)c2)nc2cccnc21,709
4,COc1cccc(Nc2nc(-c3ccc(I)cc3)cs2)c1,1270
5,Cc1cccc(NC(=O)N(C)CCc2noc(COc3ccccc3F)n2)c1C,823
6,Cn1nc(-c2ccncc2)nc1C1CN(S(=O)(=O)c2cc(F)ccc2F)C1,638
7,CC1=C(C(=O)N2CCOCC2)C(c2ccccc2Br)C2=C(CC(C)(C)CC2=O)N1 (stereo unspecified),683
8,COc1ccc(C2(C(=O)N3CCC(Cc4nc(-c5ccccc5)no4)CC3)CC2)cc1,1050
9,O=C(NC1CC1)c1cccc(OCC2CCCN(C(=O)C3CCC3)C2)c1 (stereo unspecified),789
10,Cc1cc2nc(C)c(=O)n(CC(=O)NCCCN(C)C3CCCCC3)c2cc1C,624
11,O=C(CCc1nc(-c2ccc(N3CCCC3)cc2)no1)N1CCN(c2ncccn2)CC1,957
12,CSc1cccc(NC(=O)Cc2nnc(-c3ccc4ncccc4c3)o2)c1,753
13,Cc1cccc(-c2nc(C3CCN(S(=O)(=O)c4ccccc4)CC3)no2)c1,1150
14,CC1=C(c2ccc(Cl)cc2)S(=O)(=O)N=C1N1CCCN(C(=O)c2ccsc2)CC1,843
15,c1cc(-c2nc(-c3ccc4c(c3)ncn4CCN3CCCCC3)no2)ccn1,581
16,Cc1cccc(C)c1NC(=O)C1CCCN1S(=O)(=O)c1cc2c(cc1Cl)NC(=O)CO2 (stereo unspecified),778
17,Cc1cc2nn(CC(=O)Nc3cccc(C(C)C)c3)c(=O)n2c(-c2ccccc2)n1,955
18,CCC(C)NC(=O)c1cnn(-c2cc(-c3nc(C(C)(C)C)no3)ccn2)c1C (stereo unspecified),711
19,COc1cc(=O)n(-c2ccccc2)nc1C(=O)N1c2ccc(F)cc2CCC1C (stereo unspecified),866
20,CCCCCC(=O)N1CCCCC1,909
21,Cc1ccc(C)c(OCC(=O)Nc2nc(-c3ccc(Br)cc3)cs2)c1C,1430
22,CCN1C(=O)C2(CCN(S(=O)(=O)Cc3ccccc3)CC2)c2ccccc21,976

row,Compound,RP-LC retention time [s]
1,COc1ccc(N2CCN(C(=O)C3CC(=O)N(c4n[nH]c5cccc(F)c45)C3)CC2)cc1 (stereo unspecified),662
2,CCOc1ccc(C(O)CN2CCN(c3ccccn3)CC2)cc1 (stereo unspecified),560
3,CCOC(=O)c1cnn(-c2cccc(Cl)c2)c1C1CCNCC1,650
4,CCc1nc2cc(-c3noc(-c4cc(Cl)ccc4OC)n3)ccc2o1,1220
5,O=C(O)c1cc(-c2cccs2)[nH]c(=O)n1,551
6,CCOCCCNC(=O)N1CC(Oc2ccc(-c3nc(C)no3)cc2)C1,724
7,N#Cc1cccc(-c2cn3c(n2)N(C(=O)C2CCCO2)CCC3)c1 (stereo unspecified),703
8,O=C(c1ccc(Br)o1)N1CCN(c2nc3ccccc3nc2C(F)(F)F)CC1,1140
9,Nc1cc(C2CCN(C(=O)c3ccc4c(c3)OCO4)CC2)no1,651
10,COc1cccc(CC(=O)N2CCC3(CC2)N=C(c2ccc(Cl)cc2)NO3)c1,922
11,O=C(NCC(=O)N1CCN(c2ncccn2)CC1)c1c[nH]c2ccccc12,615
12,Clc1ccccc1-c1nnc(SCc2cccnc2)o1,621
13,O=C(NCc1ccc(F)cc1)C1CCN(C(=O)C2Sc3ccccc3NC2=O)CC1 (stereo unspecified),804
14,COc1ccc(-n2nc3c(N4CCCC(C(=O)NCCCc5ccccc5)C4)nnc(C)c3c2C)cc1 (stereo unspecified),777
15,COc1ccccc1-c1nnc(Nc2nc3ccc(SC)cc3s2)o1,830
16,CSc1ccc(-c2nc3cc(C)ccn3c2Nc2ccc(C)cc2)cc1,808
17,CC1(C)CC(=O)c2cn(-c3ccccc3)c(=O)c(C(=O)Nc3ccc(F)cc3F)c2C1,1090
18,O=C(NCc1ccco1)C1c2ccccc2C(=O)N(Cc2ccccc2)C12CCCC2 (stereo unspecified),943
19,CCC1(O)CCOC2(CCN(C(=O)CC3CCCC3)CC2)C1 (stereo unspecified),748
20,CN(CC(=O)Nc1cccnc1)c1nc2ccccc2s1,568
21,CC1CCc2c(sc(NC(=O)Cc3ccc4c(c3)OCO4)c2C#N)C1 (stereo unspecified),1070
22,O=C(Cn1nc2nc(N3CCCC3)ccn2c1=O)Nc1ccc(Cl)cc1,714

row,Compound,RP-LC retention time [s]
1,CCOC(=O)N1CCN(Cc2c(O)ccc3ccccc23)CC1,691
2,O=C(NCCC1=CCCCC1)C1CCN(c2ncccc2-c2nc(-c3ccc(Cl)cc3)no2)CC1,1330
3,CCNC(=O)c1c(-c2cccnc2)noc1C,583
4,Cc1cc2c(=O)n(CC(=O)Nc3cc(Cl)ccc3C)ccc2s1,847
5,O=C(CCC1CCCN(S(=O)(=O)c2ccccc2F)C1)NC1CCS(=O)(=O)C1 (stereo unspecified),748
6,COc1cccc(CNC(=O)N2CCC3(C2)C(=O)N(C)c2ccc(OC)cc23)c1 (stereo unspecified),704
7,CCn1nccc1-c1cccc(-c2noc(CNC(=O)Cc3ccc(Cl)cc3)n2)c1,922
8,C=CCc1c(C)nc2c(-c3ccccc3)cnn2c1NCCN(C)C,660
9,O=C(CCc1c(-c2ccc(F)cc2)nc2ccccn12)Nc1ccccc1F,653
10,CCOC(=O)c1ccc(NC(=O)CN2N=NC3C(=O)N(c4ccc(F)cc4)C(=O)C32)cc1 (stereo unspecified),812
11,Cc1nnc(-c2nnc(NC3CCCCC3)c3ccccc23)o1,688
12,COc1ccc(OC)c(CNS(=O)(=O)c2cccc(-c3nc(-c4ccc(C)cc4)no3)c2)c1,1220
13,CCc1ccc(Nc2nc(C(=O)NCCOC)nc3ccccc23)cc1,748
14,CCOC(=O)Cc1ccc(NC(=O)N2CCC3(CC2)NC(=O)c2ccccc2O3)cc1,761
15,COc1cccc(CNC(=O)c2nnc(-c3ccc(S(=O)(=O)N4CCC(C)CC4)cc3)o2)c1,1030
16,COc1cccc(S(=O)(=O)N2CCC3(C2)C(=O)Nc2ccc(OC)cc23)c1 (stereo unspecified),816
17,COc1cc(=O)n2c(c1C(=O)Nc1ccc(Br)cc1)CCCC2,760
18,COc1ccc(CNC(=O)NC2CCN(c3ccc(C)c(C)c3)C2=O)cc1 (stereo unspecified),793
19,CC(C)(C)c1[nH]cnc1/C=c1\[nH]c(=O)/c(=C/c2ccccc2)[nH]c1=O,806
20,Cc1cc(C)cc(N2CCC(NC(=O)c3ccc(Cl)s3)C2=O)c1 (stereo unspecified),956
21,CC1OC(O[C@H]2C[C@@H](O)[C@]3(CO)[C@H]4[C@H](O)C[C@]5(C)[C@@H](C6=CC(=O)OC6)CC[C@]5(O)[C@@H]4CC[C@]3(O)C2)C(O)C(O)C1O (stereo partly specified),594
22,C[C@H]1CN(C(=O)c2ccc(C#N)cc2)C[C@@H]1c1nc(-c2cccnc2)no1,717
